Assay results published in paper PMC7522794, “Synthesis and evaluation of novel 2,4-disubstituted arylthiazoles against T. brucei” (RSC Medicinal Chemistry, 2019).
Where a name gives a salt, the structure may show the parent alone.

Columns and labels:
[1] = tested on: Bloodstream form T. brucei (strain 427); experiment: Trypanocidal activity against bloodstream form T. brucei (Alamar Blue growth inhibition); assay type: cell-based, Trypanosoma brucei; settings: 48 hours + overnight Alamar Blue; for IC50: concentration that inhibits growth by 50%; for IC90: concentration that inhibits growth by 90%
Description: Bloodstream form T. brucei (strain 427) were cultured at 37 °C in modified Iscove's medium. Trypanocidal activity was assessed by growing parasites in microtiter plates in the presence of various drug concentrations. […] The plates were incubated for 48 hours at 37 °C and 20 μL Alamar Blue was then added to each well. After an additional overnight incubation, the fluorescence was determined. Inhibition of growth was calculated by comparison with control values and IC50 and IC90 values were determined in triplicate using linear regression analysis.

[2] = Cytotoxic activity against rat skeletal myoblast L6 cells (Alamar Blue); assay type: cell-based; settings: rat, L6 cells (rat skeletal muscle line); cytotoxicity, 6 days incubation + 8 hours Alamar Blue
Description: (§1) Cytotoxicity against mammalian cells was assessed using microtitre plates. Briefly, L6 cells (a rat skeletal muscle line) were seeded at 1 × 10^4 mL^–1 in 200 μL of growth medium containing 7 different compound concentrations in a range previously established to encompass both the IC50 and IC90 values. The plates were incubated for 6 days at 37 °C and 20 μL Alamar Blue (Biosource UK Ltd) was then added to each well. After an additional 8 hours incubation, the fluorescence was determined using a FLUOstar Omega fluorescent plate reader (BMG Labtech). Inhibition of growth was calculated by comparison with control values and IC50 and IC90 values were determined in triplicate using linear regression analysis.

L6 cells = experiment: as above; assay type: cell-based; settings: ratio of IC50 values obtained with L6 cells and T. brucei
Description: as §1

Row | melting point | Compound | IC50 ([1]; Trypanosoma brucei) [µM] | other results
1 | 172 °C (dec.) | Br.NCc1nc(-c2ccc(C34CC5CC(CC(C5)C3)C4)cc2)cs1 [Compound 3b, 2-{4-[4-(1-Tricyclo[3.3.1.1^3,7]decyl)phenyl]thiazol-2-yl}methanamine difumarate] | 9.76 ± 0.77 | IC90 ([1]; Trypanosoma brucei): 12.8 ± 0.2 µM; IC50 [2]: 12.6 ± 0.9 µM
2 |  | CNCCc1csc(-c2ccc(F)c(C34CC5CC(CC(C5)C3)C4)c2)n1 [Compound 1b, 2-{2-[3-(1-Tricyclo[3.3.1.1^3,7]decyl)-4-fluorophenyl]thiazol-4-yl}-N-methylethan-1-amine] | 0.9 ± 0.01 | IC90 ([1]; Trypanosoma brucei): 1.1 ± 0.01 µM; IC50 [2]: 2.01 ± 0.32 µM; S.I. (selectivity index) (L6 cells): 2.2
3 | 246 to 248 °C | NCCc1csc(-c2ccc(F)c(C34CC5CC(CC(C5)C3)C4)c2)n1 (as salt: hydrochloride) [Compound 1a, 2-{2-[3-(1-Tricyclo[3.3.1.1^3,7]decyl)-4-fluorophenyl]thiazol-4-yl}ethan-1-amine] |  | 
4 |  | 1-{2-[4-(1-Tricyclo[3.3.1.1^3,7]decyl)phenyl]thiazol-4-yl}guanidine [Compound 3e] |  | IC50 [1]: ~10 µM
5 |  | CC(=O)NCCc1csc(-c2ccc(F)c(C34CC5CC(CC(C5)C3)C4)c2)n1 [Compound 1d, N-{2-[2-(3-(1-Tricyclo[3.3.1.1^3,7]decyl)-4-fluorophenyl]thiazol-4-yl]ethyl}acetamide] | 15.3 ± 0.2 | IC90 ([1]; Trypanosoma brucei): 18.1 ± 0.2 µM
6 | 159 to 160 °C | N#CCc1csc(-c2ccc(C34CC5CC(CC(C5)C3)C4)cc2)n1 [Compound 2e, 2-{2-[4-(1-Tricyclo[3.3.1.1^3,7]decyl)phenyl]thiazol-4-yl}acetonitrile] | > 20 | 
7 | 135 to 136 °C | O=C(NCCc1csc(-c2ccccc2)n1)C12CC3CC(CC(C3)C1)C2 [Compound 4a, N-(2-(2-Phenylthiazol-4-yl)ethyl)(1-tricyclo[3.3.1.1^3,7]decane)carboxamide] | 12.2 ± 0.8 | IC90 ([1]; Trypanosoma brucei): 18.7 ± 0.4 µM
8 |  | CCCC(=O)NCCc1csc(-c2ccc(F)c(C34CC5CC(CC(C5)C3)C4)c2)n1 [Compound 1e, N-{2-[2-(3-(1-Tricyclo[3.3.1.1^3,7]decyl)-4-fluorophenyl)thiazol-4-yl]ethyl}butylamide] | > 25 | 
9 |  | CN(C)CCc1csc(-c2ccc(C34CC5CC(CC(C5)C3)C4)cc2)n1 [Compound 2c, 2-{2-[4-(1-Tricyclo[3.3.1.1^3,7]decyl)phenyl]thiazol-4-yl}-N,N-dimethylethan-1-amine] | 1.27 ± 0.07 | IC90 ([1]; Trypanosoma brucei): 1.6 ± 0.22 µM
10 |  | NCCc1csc(-c2ccc(C34CC5CC(CC(C5)C3)C4)cc2)n1 [Compound 2a, 2-{2-[4-(1-Tricyclo[3.3.1.1^3,7]decyl)phenyl]thiazol-4-yl}ethan-1-amine] | 0.8 ± 0.03 | IC90 ([1]; Trypanosoma brucei): 1.17 ± 0.01 µM; IC50 [2]: 4.08 ± 0.15 µM; S.I. (selectivity index) (L6 cells): 5.1
11 |  | Cc1ccoc1C(=O)NCCc1csc(-c2ccc(F)c(C34CC5CC(CC(C5)C3)C4)c2)n1 [Compound 1h, N-{2-[2-(3-(1-Tricyclo[3.3.1.1^3,7]decyl)-4-fluorophenyl)thiazol-4-yl]ethyl}-3-methylfuran-2-ylcarboxamide] | > 20 | 
12 | 226 to 227 °C | O=C(NCCc1csc(-c2ccc(F)c(C34CC5CC(CC(C5)C3)C4)c2)n1)c1ccc(F)cc1 (as salt: fumarate) [Compound 1g, N-{2-[2-(3-(1-Tricyclo[3.3.1.1^3,7]decyl)-4-fluorophenyl)thiazol-4-yl]ethyl}-4-fluorobenzamide] |  | 
13 | 164 to 166 °C | CC(=O)NCCc1csc(-c2ccc(C34CC5CC(CC(C5)C3)C4)cc2)n1 (as salt: fumarate) [Compound 2d, N-{2-[2-(4-(1-Tricyclo[3.3.1.1^3,7]decyl)phenyl)thiazol-4-yl]ethyl}acetamide] |  | 
14 |  | CNCCc1csc(-c2ccc(C34CC5CC(CC(C5)C3)C4)cc2)n1 [Compound 2b, 2-{2-[4-(1-Tricyclo[3.3.1.1^3,7]decyl)phenyl]thiazol-4-yl}-N-methylethan-1-amine] | 0.59 ± 0.02 | IC90 ([1]; Trypanosoma brucei): 0.79 ± 0.01 µM; IC50 [2]: 0.96 ± 0.26 µM; S.I. (selectivity index) (L6 cells): 1.6
15 |  | CC(=O)NCCc1csc(-c2ccc(C34CC5CC(CC(C5)C3)C4)cc2)n1 [Compound 2d, N-{2-[2-(4-(1-Tricyclo[3.3.1.1^3,7]decyl)phenyl)thiazol-4-yl]ethyl}acetamide] | > 20 | 
16 | 291 to 293 °C | CCCC(=O)NCCc1csc(-c2ccc(F)c(C34CC5CC(CC(C5)C3)C4)c2)n1 (as salt: fumarate) [Compound 1e, N-{2-[2-(3-(1-Tricyclo[3.3.1.1^3,7]decyl)-4-fluorophenyl)thiazol-4-yl]ethyl}butylamide] |  | 

Row | melting point | Compound | IC50 ([1]; Trypanosoma brucei) [µM] | other results
17 | 107 to 108 °C | O=C(NCCc1nc(-c2ccccc2)cs1)C12CC3CC(CC(C3)C1)C2 [Compound 4c, N-[2-(4-Phenylthiazol-2-yl)ethyl](1-tricyclo[3.3.1.1^3,7]decane)carboxamide] | 9.82 ± 0.22 | IC90 ([1]; Trypanosoma brucei): 13.1 ± 0.2 µM
18 | 93 to 94 °C | OCCc1csc(-c2ccc(C34CC5CC(CC(C5)C3)C4)cc2)n1 [Compound 2g, 2-{2-[4-(1-Tricyclo[3.3.1.1^3,7]decyl)phenyl]thiazol-4-yl}ethan-1-ol] | ~10 | 
19 |  | [N-]=[N+]=NCCc1csc(-c2ccc(C34CC5CC(CC(C5)C3)C4)cc2)n1 [Compound 2h, 2-[4-(1-Tricyclo[3.3.1.1^3,7]decyl)phenyl]-4-(2-azidoethyl)thiazole] | > 20 | 
20 | 302 °C (dec.) | CN(C)CCc1csc(-c2ccc(C34CC5CC(CC(C5)C3)C4)cc2)n1 (as salt: fumarate) [Compound 2c, 2-{2-[4-(1-Tricyclo[3.3.1.1^3,7]decyl)phenyl]thiazol-4-yl}-N,N-dimethylethan-1-amine] |  | 
21 | 305 °C (dec.) | O=C(NCCc1csc(-c2ccc(F)c(C34CC5CC(CC(C5)C3)C4)c2)n1)c1ccccc1 (as salt: fumarate) [Compound 1f, N-{2-[2-(3-(1-Tricyclo[3.3.1.1^3,7]decyl)-4-fluorophenyl)thiazol-4-yl]ethyl}benzamide] |  | 
22 | 221 to 223 °C | CNCCc1csc(-c2ccc(F)c(C34CC5CC(CC(C5)C3)C4)c2)n1 (as salt: hydrochloride) [Compound 1b, 2-{2-[3-(1-Tricyclo[3.3.1.1^3,7]decyl)-4-fluorophenyl]thiazol-4-yl}-N-methylethan-1-amine] |  | 
23 | 143 to 145 °C | CC(=O)NCCc1csc(-c2ccc(F)c(C34CC5CC(CC(C5)C3)C4)c2)n1 (as salt: fumarate) [Compound 1d, N-{2-[2-(3-(1-Tricyclo[3.3.1.1^3,7]decyl)-4-fluorophenyl]thiazol-4-yl]ethyl}acetamide] |  | 
24 |  | CC1(C)[C@@H]2CC[C@]1(CS(=O)(=O)NCCc1csc(-c3ccccc3)n1)C(=O)C2 [Compound 4b, 1-((1R,4R)-7,7-Dimethyl-2-oxobicyclo[2.2.1]hept-1-yl)-N-(2-(2-phenylthiazol-4-yl)ethyl)methanesulfonamide] | 20.6 ± 0.7 | IC90 ([1]; Trypanosoma brucei): 31.1 ± 0.3 µM
25 |  | O=C(NCCc1csc(-c2ccc(F)c(C34CC5CC(CC(C5)C3)C4)c2)n1)c1ccccc1 [Compound 1f, N-{2-[2-(3-(1-Tricyclo[3.3.1.1^3,7]decyl)-4-fluorophenyl)thiazol-4-yl]ethyl}benzamide] | > 20 | 
26 |  | O=C(NCCc1csc(-c2ccc(F)c(C34CC5CC(CC(C5)C3)C4)c2)n1)N1CCCC1 [Compound 1i, N-(2-(2-(3-(1-Tricyclo[3.3.1.1^3,7]decyl)-4-fluorophenyl)thiazol-4-yl)ethyl)pyrrolidin-1-yl-carboxamide] | > 20 | 
27 | 169 to 170 °C | N#CSCc1csc(-c2ccc(C34CC5CC(CC(C5)C3)C4)cc2)n1 [Compound 2f, 2-[4-(1-Tricyclo[3.3.1.1^3,7]decyl)phenyl]-4-(thiocyanatemethyl)thiazole] | ~10 | 
28 | 147 to 149 °C | CNCCc1csc(-c2ccc(C34CC5CC(CC(C5)C3)C4)cc2)n1 (as salt: fumarate) [Compound 2b, 2-{2-[4-(1-Tricyclo[3.3.1.1^3,7]decyl)phenyl]thiazol-4-yl}-N-methylethan-1-amine] |  | 
29 |  | O=C(NCCc1csc(-c2ccc(F)c(C34CC5CC(CC(C5)C3)C4)c2)n1)c1ccc(F)cc1 [Compound 1g, N-{2-[2-(3-(1-Tricyclo[3.3.1.1^3,7]decyl)-4-fluorophenyl)thiazol-4-yl]ethyl}-4-fluorobenzamide] | > 20 | 
30 | 280 to 282 °C | CN(C)CCc1csc(-c2ccc(F)c(C34CC5CC(CC(C5)C3)C4)c2)n1 (as salt: hydrochloride) [Compound 1c, 2-{2-[3-(1-Tricyclo[3.3.1.1^3,7]decyl)-4-fluorophenyl]thiazol-4-yl}-N,N-dimethylethyl-1-amine] |  | 
31 | 301 °C (dec.) | O=C(NCCc1csc(-c2ccc(F)c(C34CC5CC(CC(C5)C3)C4)c2)n1)N1CCCC1 (as salt: fumarate) [Compound 1i, N-(2-(2-(3-(1-Tricyclo[3.3.1.1^3,7]decyl)-4-fluorophenyl)thiazol-4-yl)ethyl)pyrrolidin-1-yl-carboxamide] |  | 
32 | 225 °C (dec.) | NCCc1csc(-c2ccc(C34CC5CC(CC(C5)C3)C4)cc2)n1 (as salt: hydrochloride) [Compound 2a, 2-{2-[4-(1-Tricyclo[3.3.1.1^3,7]decyl)phenyl]thiazol-4-yl}ethan-1-amine] |  | 
